Values after ≈ are worked out from the molar mass of the structure shown. Where two headings read alike, the source gives them in different places.
What was measured:
Assay in all cases: MIC, broth microdilution
S. pneumoniae = assay type: cell-based, Streptococcus pneumoniae
Protocol: (§1) MICs were determined by the microdilution method according to the Clinical and Laboratory Standards Institute guidelines. […] Finally, the 96-well plates were incubated at 37 °C for 16–20 h to observe and record the results. […] The assay for MICs was replicated at least three times.

S. pyogenes = assay type: cell-based, Streptococcus pyogenes
Protocol: as §1

H. influenzae = assay type: cell-based, Haemophilus influenzae
Protocol: as §1

S. aureus = assay type: cell-based, Staphylococcus aureus
Protocol: as §1

[1] = Streptococcus pneumoniae, ATCC49619, S. pneumoniae ATCC49619, Ery-S, read-out: MIC
[2] = Streptococcus pneumoniae, S. pneumoniae 07P390, c-ermB, read-out: MIC
[3] = Streptococcus pneumoniae, S. pneumoniae PU09, mef, read-out: MIC
[4] = Streptococcus pyogenes, S. pyogenes 01-968, i-ermTR (Table S5), read-out: MIC
[5] = Streptococcus pyogenes, S. pyogenes 12-206, c-ermB (Table S5), read-out: MIC
[6] = Streptococcus pyogenes, S. pyogenes 12-206, c-ermTR, read-out: MIC
[7] = Haemophilus influenzae, ATCC49247, H. influenzae ATCC49247, Azi-S, read-out: MIC

Structure (SMILES)	MIC (S. pneumoniae; S. pneumoniae 07P390, c-ermB)	MIC (S. pneumoniae; S. pneumoniae ATCC49619, Ery-S)	MIC (S. pneumoniae; S. pneumoniae PU09, mef)	MIC (S. pyogenes; S. pyogenes 01-968, i-ermTR (Table S5))	MIC (S. pyogenes; S. pyogenes 12-206, c-ermB (Table S5))	MIC (H. influenzae; H. influenzae ATCC49247, Azi-S)	MIC (S. pneumoniae; [1])	MIC (S. pneumoniae; [2])	MIC (S. pneumoniae; [3])	MIC (S. pyogenes; [4])	MIC (S. pyogenes; [5])	MIC (S. pyogenes; [6])	MIC (H. influenzae; [7])	MIC (S. pyogenes; S. pyogenes 12-206, c-ermTR)	MIC (S. aureus; S. aureus 15B196, c-ermB)	MIC (S. aureus; S. aureus PU32, i-ermA)	MIC (S. aureus; Staphylococcus aureus, S. aureus 15B196, c-ermB, read-out: MIC)	MIC (S. aureus; Staphylococcus aureus, S. aureus PU32, i-ermA, read-out: MIC)
CC[C@H]1OC(=O)[C@H](C)[C@@H](OC(=O)NCCCCCCC#Cc2ccc3c(=O)[nH]cnc3c2)[C@H](C)[C@@H](O[C@@H]2O[C@H](C)C[C@H](N(C)C)[C@H]2O)[C@](C)(OC)C[C@@H](C)C(=O)[C@H](C)[C@H]2NC(=O)O[C@@]21C [88k]	128 µg/mL (≈ 141 µM)	0.06 µg/mL (≈ 0.0659 µM)	0.5 µg/mL (≈ 0.549 µM)	1 µg/mL (≈ 1.1 µM)	32 µg/mL (≈ 35.2 µM)	64 µg/mL (≈ 70.3 µM)	–	–	–	–	–	–	–	–	–	–	–	–
CC[C@H]1OC(=O)[C@H](C)[C@@H](OC(=O)NCCCCCCC#Cc2ccc3c(=O)c4c(O)cc(O)cc4oc3c2)[C@H](C)[C@@H](O[C@@H]2O[C@H](C)C[C@H](N(C)C)[C@H]2O)[C@](C)(OC)C[C@@H](C)C(=O)[C@H](C)[C@H]2NC(=O)O[C@@]21C [88m]	–	–	–	–	–	–	4 µg/mL (≈ 4.03 µM)	16 µg/mL (≈ 16.1 µM)	1 µg/mL (≈ 1.01 µM)	16 µg/mL (≈ 16.1 µM)	32 µg/mL (≈ 32.3 µM)	32 µg/mL (≈ 32.3 µM)	16 µg/mL (≈ 16.1 µM)	–	–	–	–	–
CC[C@H]1OC(=O)[C@H](C)[C@@H](OC(=O)NCCCCCCC#Cc2ccc3c(=O)c(C(=O)O)cn(C4CC4)c3c2)[C@H](C)[C@@H](O[C@@H]2O[C@H](C)C[C@H](N(C)C)[C@H]2O)[C@](C)(OC)C[C@@H](C)C(=NOC)[C@H](C)[C@H]2OC(=O)O[C@@]21C [58c]	1 µg/mL (≈ 0.977 µM)	0.25 µg/mL (≈ 0.244 µM)	0.25 µg/mL (≈ 0.244 µM)	–	–	32 µg/mL (≈ 31.3 µM)	–	–	–	–	–	–	–	2 µg/mL (≈ 1.95 µM)	64 µg/mL (≈ 62.5 µM)	8 µg/mL (≈ 7.82 µM)	–	–
CC[C@H]1OC(=O)[C@H](C)[C@@H](OC(=O)NCCCCC#Cc2ccc3c(c2)c(=O)c(C(=O)O)cn3C2CC2)[C@H](C)[C@@H](O[C@@H]2O[C@H](C)C[C@H](N(C)C)[C@H]2O)[C@](C)(O)C[C@@H](C)CN(C)[C@H](C)[C@H]2OC(=O)O[C@@]21C [109a]	256 µg/mL (≈ 265 µM)	1 µg/mL (≈ 1.03 µM)	2 µg/mL (≈ 2.07 µM)	–	–	32 µg/mL (≈ 33.1 µM)	–	–	–	–	–	–	–	128 µg/mL (≈ 132 µM)	256 µg/mL (≈ 265 µM)	32 µg/mL (≈ 33.1 µM)	–	–
CC[C@H]1OC(=O)[C@H](C)[C@@H](OC(=O)NCCCCCCC#Cc2ccc3c(=O)c(C(=O)O)cn(C4CC4)c3c2)[C@H](C)[C@@H](O[C@@H]2O[C@H](C)C[C@H](N(C)C)[C@H]2O)[C@](C)(OC)C[C@@H](C)C(=O)[C@H](C)[C@H]2NC(=O)O[C@@]21C [88c]	–	–	–	–	–	–	≤ 0.008 µg/mL	–	≤ 0.008 µg/mL	–	–	0.5 µg/mL (≈ 0.503 µM)	–	1 µg/mL (≈ 1.01 µM)	4 µg/mL (≈ 4.03 µM)	1 µg/mL (≈ 1.01 µM)	8 µg/mL (≈ 8.05 µM)	2 µg/mL (≈ 2.01 µM)
CC[C@H]1OC(=O)[C@H](C)[C@@H](OC(=O)NCCCCCCCCCCc2ccc3c(c2)c(=O)c(C(N)=O)cn3C2CC2)[C@H](C)[C@@H](O[C@@H]2O[C@H](C)C[C@H](N(C)C)[C@H]2O)[C@](C)(OC)C[C@@H](C)C(=NOC)[C@H](C)[C@H]2OC(=O)O[C@@]21C [64b]	16 µg/mL (≈ 15.2 µM)	4 µg/mL (≈ 3.79 µM)	8 µg/mL (≈ 7.59 µM)	–	–	> 256 µg/mL	–	–	–	–	–	–	–	16 µg/mL (≈ 15.2 µM)	> 256 µg/mL	64 µg/mL (≈ 60.7 µM)	–	–
CC[C@H]1OC(=O)[C@H](C)[C@@H](OC(=O)NCCCCCCCc2ccc3c(c2)c(=O)c(C(N)=O)cn3C2CC2)[C@H](C)[C@@H](O[C@@H]2O[C@H](C)C[C@H](N(C)C)[C@H]2O)[C@](C)(OC)C[C@@H](C)C(=NOC)[C@H](C)[C@H]2OC(=O)O[C@@]21C [61b]	16 µg/mL (≈ 15.8 µM)	1 µg/mL (≈ 0.988 µM)	1 µg/mL (≈ 0.988 µM)	–	–	> 256 µg/mL	–	–	–	–	–	–	–	16 µg/mL (≈ 15.8 µM)	> 256 µg/mL	64 µg/mL (≈ 63.2 µM)	–	–
CC[C@H]1OC(=O)[C@H](C)[C@@H](OC(=O)NCCCCCCC#Cc2ccc3c(=O)n(CC(=O)O)cnc3c2)[C@H](C)[C@@H](O[C@@H]2O[C@H](C)C[C@H](N(C)C)[C@H]2O)[C@](C)(OC)C[C@@H](C)C(=O)[C@H](C)[C@H]2NC(=O)O[C@@]21C [88l]	–	–	–	–	–	–	0.25 µg/mL (≈ 0.258 µM)	256 µg/mL (≈ 264 µM)	0.25 µg/mL (≈ 0.258 µM)	8 µg/mL (≈ 8.26 µM)	256 µg/mL (≈ 264 µM)	256 µg/mL (≈ 264 µM)	256 µg/mL (≈ 264 µM)	–	–	–	–	–

Reference: PMC11239830, “Synthetic macrolides overcoming MLSBK-resistant pathogens” (Cell Discovery, 2024)
